{"source": "patent US11439615B2", "about": "“Lipoxin and lipoxin analogue mediated neuroprotection and treatments” (University Health Network, priority 2017, dated 2022)", "key": {"HT22 cells [1]": {"system": "HT22 cells", "assay": "Mitosox mitochondrial oxidative stress in glutamate challenged HT22 cells", "type": "cell-based", "conditions": "1 μM, HT22 cells challenged with glutamate, vs vehicle", "description": "HT22 cells challenged with glutamate were then assayed for mitochondrial oxidative stress using the Mitosox reagent, in combination with 1 μM LXA4, LXB4, and the LXA4 receptor ALX/FPR2 agonists Quinc-1 and Mmk-1."}, "[2]": {"system": "retinal ganglion cell neurons (RGCs)", "assay": "Mouse acute retinal insult model (intravitreal kainic acid), RGC survival / GCL apoptosis", "type": "in vivo", "description": "Male C57BLL/6 mice, 4-6 weeks of age, were purchased from Taconic or Jackson labs. All experimental protocols were approved by the UHN and UC Berkeley ACUC in accordance with applicable regulations. Mice were anesthetized by intraperitoneal injection of ketamine/xylazine. Intravitreal injections with 10 mM kainic acid (KA) were performed as previously described (45). Briefly, a 30-gauge needle was inserted tangentially into the vitreous and replaced with a Hamilton syringe to inject a volume of 2 μL, followed by application of ophthalmic antibiotic ointment (BNP, Vetoquinol). In some experiments, 10× concentrated ACM or test compounds were injected intravitreally one hour prior to the KA injection in concentrations as follows: LXA4 and LXB4 at 10 μM, Zileuton at 2 μg/ul, and WRW4 at 15 μM, all dissolved in PBS. Mice were euthanized by CO2 asphyxiation 18 hours post KA treatment and the eyes fixed in 4% paraformaldehyde. In all experiments n refers to the number of animals tested.\nTo quantify the extent of apoptosis, a well-established method was used to count the number of TUNEL-positive nuclei in the ganglion cell layer (GCL) and expressed it as a fraction of the total GCL nuclei (50-54). TUNEL labeling was performed according to the manufacturer's instructions (DeadEnd; Promega). Briefly, cryostat sections were fixed with 4% PFA for 5 minutes and washed in PBS. Equilibration buffer was added, and rTdT reaction mix was applied to each slide and incubated at 37° C. for 60 min. Following the rTdT reaction, slides were washed in 2×SSC and PBS and finally mounted with glycerol-based medium. For RGC survival, RBPMS-positive cells in the GCL were counted and expressed as a fraction of GCL nuclei. For each eye, at least five central retinal sections were analyzed at the level of the optic nerve stretching to each ora serrata, and the results averaged, as previously described (42).\nIn order to test the influence of the transplanted cells on inner retinal pathology, RA's were transplanted as above. After 16 days retinas were challenged with an acute metabolic injury by injection of kainic acid (KA). […]\nRetinal astrocyte neuroprotection is mediated through secreted factors that include a small molecule component enriched in LXA4 and LXB4. […] This time, survival of RGCs was specifically assessed by probing for the selective marker RBPMS, along with complementary TUNEL staining, and quantified as previously. As expected, extensive RGC loss was detected in KA challenged eyes injected with cell-free control media incubated under the same conditions as ACM (FIG. 2A). […]"}, "HT22 cells [3]": {"system": "HT22 cells", "assay": "Glutamate challenge of HT22 neuronal cells, viability", "type": "cell-based", "conditions": "for protective activity of related molecules: up to 1 μM, glutamate challenged HT22 cells", "description": "An in vitro assay to recapitulate key aspects of the acute KA model was established. In this case, unconcentrated ACM was applied to the glutamate sensitive neuronal cell line HT22 (66, 67). Glutamate challenge of 5 mM was titrated to induce 60-80% cell death (ie: 20-40% survival). […] The media was concentrated for proteomic analyses.\nLXA4 and LXB4 promote direct neuroprotective signaling. To the inventor's knowledge, a role for lipoxins as direct neuroprotective or neurotrophic factors has not been reported. Although their established anti-inflammatory actions extend to the CNS (29-32). However, it was hypothesized they may have indirect protective effects. In order to test whether the protective activity was direct or indirect, LXA4 or LXB4 was applied to neuronal cells in an established in vitro assay.\nThere is no established receptor for LXB4. However, LXB4 shares structural homology with LXA4 and the DHA-derived resolving D2 (RvD2), which mediate their actions via FPR2 or GPR18 (74), respectively. Therefore, it was assessed whether specific receptor antagonists for FPR2 or GPR18 could block LXB4 mediated protection.\nAs shown in FIG. 14 lipoxin neuroprotection is dose responsive. Dose responses were generated for LXA4 (open circles) and LXB4 (closed circles) in HT22 cells exposed to glutamate stress, followed by nonlinear regression analyses."}, "primary cortical neurons": {"system": "primary cortical neurons", "assay": "Primary cortical neurons under paraquat oxidative stress, neuron number", "type": "cell-based", "conditions": "n=5", "source_text": "Quantification of neuron number following oxidative stress from the redox cycling compound paraquat in primary cortical neurons."}}, "data": [{"smiles": "CCCCOc1ccc(C(=O)NN2C(=O)c3ccccc3NC2c2ccc(OC)cc2)cc1", "note": "(centres unmarked) [Quinc-1, reference compound]", "values": [{"measurement": "mitochondrial oxidative stress (Mitosox)", "setting": "HT22 cells [1]", "result": "reduce mitochondrial oxidative stress"}]}, {"smiles": "CC(c1cc2ccccc2s1)N(O)C(N)=O", "note": "(centres unmarked) [Zileuton, reference compound]", "values": [{"measurement": "exacerbation of RGC loss in response to KA challenge compared to vehicle", "setting": "[2]; intravitreal inhibitor prior to KA, Zileuton 10 μM or 2 μg/ul, WRW4 15 μM", "result": 60, "unit": "%"}, {"measurement": "effect on RGC numbers, drug alone", "setting": "[2]; uninjured (naive) eyes, intravitreal, no KA, RBPMS counts", "result": "no effect"}]}, {"smiles": "CC/C=C\\C[C@H](O)[C@H](O)/C=C/C=C/C=C\\C=C\\[C@@H](O)C/C=C\\CCC(=O)O", "note": "[RvD2, reference compound]", "values": [{"measurement": "protective activity of related molecules", "setting": "HT22 cells [3]", "result": "no protective activity"}, {"measurement": "neuron number following oxidative stress from paraquat", "setting": "primary cortical neurons", "result": "no protection"}]}, {"smiles": "C=C(C)[C@@H]1CCC(C)=C[C@H]1c1c(OC)cc(C)cc1OC", "note": "[O-1918, reference compound]", "values": [{"measurement": "block of LXB4 protective activity by receptor antagonist", "setting": "HT22 cells [3]; LXB4 at 500 nM, increasing μM concentrations of antagonist", "result": "did not block LXB4 protective activity"}]}, {"smiles": "CCCCC[C@H](O)/C=C/C=C\\C/C=C\\C/C=C\\CCCC(=O)O", "note": "[15-HETE, reference compound]", "values": [{"measurement": "protective activity of related molecules", "setting": "HT22 cells [3]", "result": "no protective activity"}, {"measurement": "neuron number following oxidative stress from paraquat", "setting": "primary cortical neurons", "result": "no protection"}]}]}
